The values below come from patent publication US20110195402A1, “SYSTEMS AND METHODS FOR DETECTING DRUG USE” (priority 2010, published 2011).

“And” between values parts separate entries of the source, which are not always exact repeats. Equal values may be shown once.

In assay [1] the test system is peroxidase. The assay is described as follows: Peroxidase assay in saliva (Amplex Red). The assay is classed as biochemical. Particulars: test compound at 500 ppm, pooled or unpooled saliva, 30 minutes; FIGS. 26-29. On the procedure:
To determine the effect of various GRAS compounds as inhibitors of peroxidase activity, a standard assay using Amplex® Red (Life Technologies), which releases a fluorescent oxidation product.
The test compounds, such as GRAS materials or cocktails of same, were prepared at a concentration of 500 ppm in distilled water. For the assay, 50 μl samples of test compounds were mixed with 20-30 μl of saliva (either “pooled” or “unpooled”) prior to the addition of Amplex® Red. […] Reactions were allowed to run for 30 minutes during these assays.

Assay [2] has as its target T1, α-amylase (Homo sapiens, UniProt P0DUB6).
T1 sequence (P0DUB6 16-511): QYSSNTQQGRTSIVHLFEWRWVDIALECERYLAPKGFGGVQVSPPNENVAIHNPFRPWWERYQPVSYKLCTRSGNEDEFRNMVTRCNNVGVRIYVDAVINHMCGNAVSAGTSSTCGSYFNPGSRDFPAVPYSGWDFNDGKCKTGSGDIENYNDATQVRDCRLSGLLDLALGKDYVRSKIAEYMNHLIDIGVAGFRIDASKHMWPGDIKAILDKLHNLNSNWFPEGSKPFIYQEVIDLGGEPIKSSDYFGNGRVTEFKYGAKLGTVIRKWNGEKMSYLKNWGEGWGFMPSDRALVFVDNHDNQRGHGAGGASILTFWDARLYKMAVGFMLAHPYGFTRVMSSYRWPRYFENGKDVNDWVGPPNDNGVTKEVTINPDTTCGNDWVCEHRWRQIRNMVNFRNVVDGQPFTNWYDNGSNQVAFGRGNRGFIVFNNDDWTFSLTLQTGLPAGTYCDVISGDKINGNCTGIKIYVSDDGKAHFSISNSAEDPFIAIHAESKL
As to the kind of experiment: α-Amylase inhibition saliva screening (2-chloro-p-nitrophenol-maltotriose substrate, 405 nm). The assay is classed as biochemical. Particulars: for Ave (reading, absorbance at 405 nm) / reading (absorbance at 405 nm), single replicates: test compound prepared at 5,000 ppm, 37° C., control column '100% Saliva'; for inhibition of α-Amylase: 100% saliva samples, FIG. 11; for α-Amylase Inhibitor Activity: dilute (3.5%) saliva, FIG. 10. An excerpt:
Further details of these five compounds may also be seen in Table 4.

Assay [3] has as its target T2, lysozyme (Homo sapiens, UniProt P61626).
T2 sequence (P61626 19-148): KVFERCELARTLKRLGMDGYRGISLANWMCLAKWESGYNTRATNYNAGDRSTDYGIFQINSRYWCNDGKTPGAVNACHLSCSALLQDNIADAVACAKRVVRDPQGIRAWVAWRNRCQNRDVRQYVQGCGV
As to the kind of experiment: Lysozyme inhibition saliva screening (fluorescein-labeled Micrococcus lysodeikticus). The assay is classed as biochemical. Particulars: 100% saliva samples (data not shown). An excerpt: Further details of these five compounds may also be seen in Table 5.

Assay [4] deals with protease. Particulars: natural protease inhibitor; Table II; cited from earlier work.

Regarding `Cn1c(=O)c2c(ncn2C)n(C)c1=O` [CDI-33, Caffeine], in assay [1], the peroxidase inhibition entry is reported as “significant peroxidase inhibition capabilities”.

Aluminum sulfate hydrate [CDI-34]: the “Ave (reading, absorbance at 405 nm)” value is on record as 0.40 in assay [2] (0 min), 0.50 in assay [2] (5 min) and 0.56 in assay [2] (15 min). In addition, the “reading (absorbance at 405 nm), single replicates” value (from here on “reading (absorbance at 405 nm)”) in assay [2] (0 min, sulfate hydrate) is 0.40 (2×) and 0.36 and 0.45; in assay [2] (5 min, sulfate hydrate), 0.49 and 0.50 (2×) and 0.52; in assay [2] (15 min, sulfate hydrate), 0.53 and 0.61 and 0.54 and 0.56. Moreover, the “inhibition of α-Amylase” value in assay [2] is reported as “inhibit α-Amylase”. Also, the “α-Amylase Inhibitor Activity” value in assay [2] is reported as “α-Amylase Inhibitor Activity”.

Turning to `COc1ccc(O)c(C(C)(C)C)c1` [CDI-39, 3-tert--butyl-hydroxyanisole], the peroxidase inhibition entry in assay [1] was “significant peroxidase inhibition capabilities”.

For the molecule `O=C(O)c1ccccc1` [CDI-40, Benzoic acid], in assay [3], the “inhibition of Lysozyme” value is “inhibit Lysozyme”.

Take “Aluminum potassium sulfate dodecahydrate [CDI-42]”: in assay [2] (0 min), the “Ave (reading, absorbance at 405 nm)” value amounted to 0.92; the “reading (absorbance at 405 nm)” value is 0.80 and 1.13 and 0.90 and 0.84. In assay [2], the “inhibition of α-Amylase” value is listed as “inhibit α-Amylase” and the “α-Amylase Inhibitor Activity” value is “α-Amylase Inhibitor Activity”. For the same molecule, in assay [2] (5 min), the “Ave (reading, absorbance at 405 nm)” value is reported as 1.85; the “reading (absorbance at 405 nm)” value is 1.65 and 2.15 and 1.80 and 1.81. In assay [2] (15 min), the “Ave (reading, absorbance at 405 nm)” value came out at 2.29; the “reading (absorbance at 405 nm)” value was 2.37 and 2.38 and 2.25 and 2.17. Also, the peroxidase inhibition entry in assay [1] was “significant peroxidase inhibition capabilities”.

B1: Soybeans: primary soybean protease inhibitor, 20.7-22.3 kDa (protein, UniProt P01070 25-205, looked up)
Trypsin inhibitor A: DFVLDNEGNPLENGGTYYILSDITAFGGIRAAPTGNERCPLTVVQSRNELDKGIGTIISSPYRIRFIAEGHPLSLKFDSFAVIMLCVGIPTEWSVVEDLPEGPAVKIGENKDAMDGWFRLERVSDDEFNNYKLVFCPQQAEDDKCGDIGISIDHDDGTRRLVVSKNKPLVVQFQKLDKESL
B1: the Inhibitory power in assay [4] is 1.2 times times weight.
